According to ChEMBL document CHEMBL1201862, “PubChem BioAssay data set” (2004):
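All cell lines were grown in 96-well plates and treated with compound for 48 hours. GI50: concentration for 50% inhibition of growth.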 The source made the active and inactive calls. Cut-off read from the data, not from the text of the source: active = GI50 up to about 1.1 µM and inactive = higher.

Experiments:
Test in all cases: DTP human tumour cell line panel, 48 h
[1] = system: RXF 393
[2] = system: SK-OV-3
[3] = system: KM-20L2
[4] = system: HL-60
[5] = system: KM12
[6] = system: HCT-15
[7] = system: HT-29
[8] = system: SR
[9] = system: HCC 2998
[10] = system: ACHN
[11] = system: COLO 205
[12] = system: MOLT-4
[13] = system: 786-0
[14] = system: SF-268
[15] = system: NCI-H23
[16] = system: CCRF-CEM

| SMILES | GI50 [1] | GI50 [2] | GI50 [3] | GI50 [4] | GI50 [5] | GI50 [6] [µM] | GI50 [7] | GI50 [8] | GI50 [9] | GI50 [10] | GI50 [11] | GI50 [12] | GI50 [13] | GI50 [14] | GI50 [15] | GI50 [16] |
| --- | --- | --- | --- | --- | --- | --- | --- | --- | --- | --- | --- | --- | --- | --- | --- | --- |
| CN(C)C=[N+]=[N-] | > 100 µM (inactive) | > 100 µM (inactive) | > 100 µM (inactive) | > 100 µM (inactive) | > 100 µM (inactive) | > 100 | > 100 µM (inactive) | > 100 µM (inactive) | > 100 µM (inactive) | > 100 µM (inactive) | > 100 µM (inactive) | > 100 µM (inactive) | > 100 µM (inactive) | > 100 µM (inactive) | > 100 µM (inactive) | – |
| CCCCCC(C[N+]1(C)CCOCC1)C(=O)/C=C/c1ccccc1 (centres undefined) | 14.4 µM (inactive) | 46.5 µM (inactive) | 15.9 µM (inactive) | 6.89 µM (inactive) | 2.8 µM (inactive) | 8.34 | 5.31 µM (inactive) | 2.91 µM (inactive) | 18.2 µM (inactive) | 23.6 µM (inactive) | 15.7 µM (inactive) | 3.03 µM (inactive) | 2 µM (inactive) | 9.64 µM (inactive) | 14.7 µM (inactive) | 2.71 µM (inactive) |
| Cn1cc/c(=N\N=c2/ccn(C)c3ccccc23)c2ccccc21 | 14.3 µM (inactive) | 15.7 µM (inactive) | 13.1 µM (inactive) | 5.78 µM (inactive) | 13 µM (inactive) | 15.8 | 12.7 µM (inactive) | 16.4 µM (inactive) | 15.8 µM (inactive) | 13.9 µM (inactive) | 10.4 µM (inactive) | 27.1 µM (inactive) | 16.4 µM (inactive) | 19.3 µM (inactive) | 13.2 µM (inactive) | 6.31 µM (inactive) |
| CCNC(=O)C(O)C1(O)CCC2[C@@H]3CCC4=CC(=O)C=C[C@]4(C)C3[C@@H](O)C[C@@]21C (some centres undefined) | > 100 µM (inactive) | > 100 µM (inactive) | > 100 µM (inactive) | 29.8 µM (inactive) | > 100 µM (inactive) | > 100 | > 100 µM (inactive) | 63 µM (inactive) | > 100 µM (inactive) | > 100 µM (inactive) | > 100 µM (inactive) | 52.1 µM (inactive) | > 100 µM (inactive) | > 49.4 µM (inactive) | > 100 µM (inactive) | 32.8 µM (inactive) |
| Clc1ccc(C[P+](c2ccccc2)(c2ccccc2)c2ccccc2)c(Cl)c1 | 2.7 µM (inactive) | 3.75 µM (inactive) | 2.61 µM (inactive) | 0.8 µM (active) | 1.69 µM (inactive) | 24 | 1.66 µM (inactive) | 1.89 µM (inactive) | 3.47 µM (inactive) | 10 µM (inactive) | 1.16 µM (inactive) | 3.3 µM (inactive) | – | 3.94 µM (inactive) | 2.89 µM (inactive) | 2.99 µM (inactive) |
| Cc1ccc(S(=O)(=O)OCOS(=O)(=O)c2ccc(C)cc2)cc1 | > 100 µM (inactive) | > 100 µM (inactive) | > 100 µM (inactive) | > 100 µM (inactive) | > 100 µM (inactive) | > 100 | – | > 100 µM (inactive) | > 100 µM (inactive) | > 100 µM (inactive) | > 100 µM (inactive) | > 100 µM (inactive) | > 100 µM (inactive) | > 100 µM (inactive) | > 100 µM (inactive) | > 100 µM (inactive) |
| CN(C)CCSc1cccc(-c2cc(-c3cccc(SCCN(C)C)c3)nc(SCCN(C)C)n2)c1 | 1.35 µM (inactive) | 30.1 µM (inactive) | 1.71 µM (inactive) | 1.85 µM (inactive) | 1.66 µM (inactive) | 2.18 | 1.55 µM (inactive) | 1.82 µM (inactive) | 2.29 µM (inactive) | 5.77 µM (inactive) | – | 1.63 µM (inactive) | 7.85 µM (inactive) | – | 4.49 µM (inactive) | 1.69 µM (inactive) |
| COc1ccccc1NC(=O)CC(=O)N1N=C(C)C(/N=N/c2ccc(S(N)(=O)=O)cc2)C1=O (centres undefined) | > 100 µM (inactive) | > 100 µM (inactive) | > 100 µM (inactive) | – | > 100 µM (inactive) | > 100 | > 100 µM (inactive) | > 100 µM (inactive) | > 100 µM (inactive) | > 100 µM (inactive) | > 100 µM (inactive) | > 100 µM (inactive) | > 100 µM (inactive) | > 100 µM (inactive) | > 100 µM (inactive) | – |
| CCOC(=O)N1CCc2cc(OC)c(OC)cc2/C1=C/c1ccc(OC)c(OC)c1 | 37.9 µM (inactive) | > 100 µM (inactive) | 38.3 µM (inactive) | 23.6 µM (inactive) | 45.3 µM (inactive) | 36.1 | 28.4 µM (inactive) | 34.1 µM (inactive) | 42.6 µM (inactive) | 52.2 µM (inactive) | 37.8 µM (inactive) | 33.2 µM (inactive) | 42.8 µM (inactive) | 79.6 µM (inactive) | 36.1 µM (inactive) | 29 µM (inactive) |
| CC(=O)[O-].[O-]c1c(Cl)cc(Cl)cc1/C=N/Nc1ccccn1.[Zn+2] | 0.923 µM (active) | – | 3.7 µM (inactive) | 0.234 µM (active) | 6.3 µM (inactive) | 0.403 | 6.82 µM (inactive) | 0.16 µM (active) | 9.86 µM (inactive) | 0.535 µM (active) | 15.2 µM (inactive) | 0.183 µM (active) | 1.59 µM (inactive) | 0.94 µM (active) | 0.32 µM (active) | 0.244 µM (active) |
| O=C(O)C1CCCCN1c1ccccc1[N+](=O)[O-] (centres undefined) | > 100 µM (inactive) | > 100 µM (inactive) | > 100 µM (inactive) | > 100 µM (inactive) | – | > 100 | > 100 µM (inactive) | > 100 µM (inactive) | > 100 µM (inactive) | > 100 µM (inactive) | – | > 100 µM (inactive) | – | > 100 µM (inactive) | > 100 µM (inactive) | > 100 µM (inactive) |
| CCC(C(=O)O)c1ccc(OC)cc1 (centres undefined) | > 100 µM (inactive) | > 100 µM (inactive) | > 100 µM (inactive) | > 100 µM (inactive) | > 100 µM (inactive) | – | > 100 µM (inactive) | > 100 µM (inactive) | > 100 µM (inactive) | > 100 µM (inactive) | > 100 µM (inactive) | > 100 µM (inactive) | – | > 100 µM (inactive) | > 100 µM (inactive) | > 100 µM (inactive) |
| CCOC(=O)Cc1ccc2c(c1O)C(=O)c1c(ccc(CC(=O)OCC)c1O)C2=O | 33 µM (inactive) | > 100 µM (inactive) | > 100 µM (inactive) | > 100 µM (inactive) | > 100 µM (inactive) | – | > 100 µM (inactive) | > 100 µM (inactive) | > 100 µM (inactive) | > 100 µM (inactive) | > 100 µM (inactive) | 87.9 µM (inactive) | > 100 µM (inactive) | > 100 µM (inactive) | > 100 µM (inactive) | 59 µM (inactive) |
| CCCCCCCCCCCCCCCCCC(=O)OCC(CN(C)CCN(C)C)OC(=O)CCCCCCCCCCCCCCCCC (centres undefined) | > 100 µM (inactive) | > 100 µM (inactive) | > 100 µM (inactive) | – | 88.5 µM (inactive) | > 100 | 40.2 µM (inactive) | 35.9 µM (inactive) | 75.9 µM (inactive) | 91.6 µM (inactive) | > 100 µM (inactive) | 27.1 µM (inactive) | > 100 µM (inactive) | 45.3 µM (inactive) | > 100 µM (inactive) | 42.9 µM (inactive) |
